Results taken from patent US9340590B2 (priority 2011, dated 2016).
Where two headings read alike, the source gives them in different places. Positions of bridges follow the written chain, without caps; N, C: chain ends. Residues, ends and D or L forms follow the SMILES beside them.

Biological target: hNav1.7 (Homo sapiens, UniProt Q15858)
Assay: cell-based
Format: cell-based
Conditions: read-out: IWQ Use Nav1.7

Chain of hNav1.7 (Q15858 whole entry, looked up): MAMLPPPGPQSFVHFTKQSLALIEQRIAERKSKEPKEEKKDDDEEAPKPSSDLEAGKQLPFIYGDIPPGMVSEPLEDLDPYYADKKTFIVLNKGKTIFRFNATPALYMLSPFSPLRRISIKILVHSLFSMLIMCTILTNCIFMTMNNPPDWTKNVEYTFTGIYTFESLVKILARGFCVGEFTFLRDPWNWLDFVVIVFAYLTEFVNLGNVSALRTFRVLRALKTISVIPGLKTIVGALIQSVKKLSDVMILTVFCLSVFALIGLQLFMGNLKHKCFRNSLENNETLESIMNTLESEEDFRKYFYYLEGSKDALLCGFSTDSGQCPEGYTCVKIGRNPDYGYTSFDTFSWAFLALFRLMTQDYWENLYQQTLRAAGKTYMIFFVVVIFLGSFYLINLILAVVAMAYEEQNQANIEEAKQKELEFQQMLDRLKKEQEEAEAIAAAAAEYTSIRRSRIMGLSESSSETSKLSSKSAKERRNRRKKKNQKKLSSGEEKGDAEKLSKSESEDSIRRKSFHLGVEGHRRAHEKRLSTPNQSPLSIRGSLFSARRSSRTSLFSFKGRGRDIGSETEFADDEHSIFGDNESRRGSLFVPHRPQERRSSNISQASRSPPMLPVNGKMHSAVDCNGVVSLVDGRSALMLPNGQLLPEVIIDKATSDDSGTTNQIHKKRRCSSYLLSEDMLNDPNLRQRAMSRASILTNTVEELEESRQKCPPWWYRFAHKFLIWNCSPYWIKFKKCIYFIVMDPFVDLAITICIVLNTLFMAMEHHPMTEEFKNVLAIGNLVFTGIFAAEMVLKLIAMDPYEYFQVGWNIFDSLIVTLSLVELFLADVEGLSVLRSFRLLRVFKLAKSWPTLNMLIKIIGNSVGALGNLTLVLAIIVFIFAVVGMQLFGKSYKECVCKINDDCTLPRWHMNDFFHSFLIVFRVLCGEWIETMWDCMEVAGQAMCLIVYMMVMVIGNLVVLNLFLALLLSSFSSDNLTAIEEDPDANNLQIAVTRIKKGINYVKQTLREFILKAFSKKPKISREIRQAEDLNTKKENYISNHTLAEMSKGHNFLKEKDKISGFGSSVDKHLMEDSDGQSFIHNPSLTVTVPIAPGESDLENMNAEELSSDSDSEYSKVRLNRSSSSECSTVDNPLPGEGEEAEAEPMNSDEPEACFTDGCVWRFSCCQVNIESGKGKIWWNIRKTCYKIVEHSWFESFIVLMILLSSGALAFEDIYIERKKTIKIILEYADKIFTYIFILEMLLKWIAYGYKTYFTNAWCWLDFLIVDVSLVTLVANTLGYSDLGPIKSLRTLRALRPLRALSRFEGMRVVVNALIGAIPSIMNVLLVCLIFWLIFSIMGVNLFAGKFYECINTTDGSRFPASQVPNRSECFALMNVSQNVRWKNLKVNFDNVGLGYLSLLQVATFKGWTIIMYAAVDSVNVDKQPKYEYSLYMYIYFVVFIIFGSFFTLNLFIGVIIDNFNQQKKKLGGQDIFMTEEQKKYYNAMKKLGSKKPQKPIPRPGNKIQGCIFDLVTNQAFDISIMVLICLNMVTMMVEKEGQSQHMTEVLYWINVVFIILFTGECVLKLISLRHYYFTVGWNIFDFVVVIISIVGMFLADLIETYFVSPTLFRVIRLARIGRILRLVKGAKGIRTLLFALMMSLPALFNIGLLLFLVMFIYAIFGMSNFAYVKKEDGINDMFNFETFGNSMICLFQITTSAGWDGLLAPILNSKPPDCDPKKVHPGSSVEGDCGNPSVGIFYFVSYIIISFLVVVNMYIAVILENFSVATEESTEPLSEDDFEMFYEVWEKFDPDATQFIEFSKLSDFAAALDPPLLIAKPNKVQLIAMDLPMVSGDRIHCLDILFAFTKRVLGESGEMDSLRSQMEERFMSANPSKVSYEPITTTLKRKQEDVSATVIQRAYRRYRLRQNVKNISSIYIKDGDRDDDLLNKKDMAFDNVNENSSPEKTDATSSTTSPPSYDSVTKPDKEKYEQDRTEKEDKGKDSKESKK

CC[C@H](C)[C@@H]1NC(=O)[C@@H]2CSSC[C@@H]3NC(=O)[C@H](C(C)C)NC(=O)[C@H](CC(C)C)NC(=O)[C@H](CC(N)=O)NC(=O)[C@@H]4CCCN4C(=O)[C@H](CCCNC(=N)N)NC(=O)[C@H](CSSC[C@H](NC(=O)[C@@H](N)CC(=O)O)C(=O)N[C@@H](CC(C)C)C(=O)NCC(=O)N[C@@H](CCCNC(=N)N)C(=O)N[C@@H](CCSC)C(=O)N[C@@H](CCCNC(=N)N)C(=O)N[C@@H](CCCCN)C(=O)N2)NC(=O)[C@H](CSSC[C@@H](C(=O)N[C@@H](CCCCN)C(=O)N[C@@H](Cc2ccc(O)cc2)C(=O)N[C@H](C(=O)N[C@@H](Cc2ccccc2)C(N)=O)C(C)C)NC(=O)[C@H](Cc2c[nH]c4ccccc24)NC(=O)[C@H](CCCCN)NC(=O)[C@H](Cc2c[nH]cn2)NC(=O)[C@H]([C@@H](C)O)NC(=O)[C@H](CCCNC(=N)N)NC(=O)[C@H](CO)NC3=O)NC(=O)[C@H](CCCCN)NC(=O)[C@H](CC(=O)O)NC(=O)[C@H](CC(N)=O)NC(=O)[C@H](CC(=O)O)NC(=O)[C@@H]2CCCN2C1=O [SEQ ID NO: 156] (H-DCLGRMRKCIPDNDKCCRPNLVCSRTHKWCKYVF-NH2; disulfide 2-17, 9-23, 16-30) showed an IC50 (IonWorks Quattro, clamped to −110 mV, depolarized to −10 mV, 5 min after compound, n=2) of 3630 nM.
For CC[C@H](C)[C@@H]1NC(=O)[C@@H]2CSSC[C@@H]3NC(=O)[C@H](C(C)C)NC(=O)[C@H](CC(C)C)NC(=O)[C@H](CC(N)=O)NC(=O)[C@@H]4CCCN4C(=O)[C@H](CCCNC(=N)N)NC(=O)[C@H](CSSC[C@H](NC(=O)[C@@H](N)CC(=O)O)C(=O)N[C@@H](CC(C)C)C(=O)N[C@@H](Cc4c[nH]c5ccccc45)C(=O)N[C@@H](Cc4ccccc4)C(=O)N[C@@H](CCSC)C(=O)N[C@@H](CCCNC(=N)N)C(=O)N[C@@H](CCCCN)C(=O)N2)NC(=O)[C@H](CSSC[C@@H](C(=O)N[C@@H](CCCCN)C(=O)N[C@@H](Cc2ccc(O)cc2)C(=O)N[C@H](C(=O)N[C@@H](Cc2ccccc2)C(N)=O)C(C)C)NC(=O)[C@H](Cc2c[nH]c4ccccc24)NC(=O)[C@H](CCCCN)NC(=O)[C@H](Cc2c[nH]cn2)NC(=O)[C@H]([C@@H](C)O)NC(=O)[C@H](CCCNC(=N)N)NC(=O)[C@H](CO)NC3=O)NC(=O)[C@H](CCCCN)NC(=O)[C@H](CC(=O)O)NC(=O)[C@H](CC(N)=O)NC(=O)[C@H](CC(=O)O)NC(=O)[C@@H]2CCCN2C1=O [SEQ ID NO: 169] (H-DCLWFMRKCIPDNDKCCRPNLVCSRTHKWCKYVF-NH2; disulfide 2-17, 9-23, 16-30), the IC50 was 50 nM.
CC[C@H](C)[C@@H]1NC(=O)[C@@H]2CSSC[C@@H]3NC(=O)[C@H](C(C)C)NC(=O)[C@H](CC(C)C)NC(=O)[C@H](CC(N)=O)NC(=O)[C@@H]4CCCN4C(=O)[C@H](CCCNC(=N)N)NC(=O)[C@H](CSSC[C@H](NC(=O)[C@@H](N)CC(=O)O)C(=O)N[C@@H](CC(C)C)C(=O)NCC(=O)N[C@@H](Cc4ccccc4)C(=O)N[C@@H](CCSC)C(=O)N[C@@H](C)C(=O)N[C@@H](CCCCN)C(=O)N2)NC(=O)[C@H](CSSC[C@@H](C(=O)N[C@@H](CCCCN)C(=O)N[C@@H](Cc2ccc(O)cc2)C(=O)N[C@H](C(=O)N[C@@H](Cc2ccccc2)C(N)=O)C(C)C)NC(=O)[C@H](Cc2c[nH]c4ccccc24)NC(=O)[C@H](CCCCN)NC(=O)[C@H](Cc2c[nH]cn2)NC(=O)[C@H]([C@@H](C)O)NC(=O)[C@H](CCCNC(=N)N)NC(=O)[C@H](CO)NC3=O)NC(=O)[C@H](CCCCN)NC(=O)[C@H](CC(=O)O)NC(=O)[C@H](CC(N)=O)NC(=O)[C@H](CC(=O)O)NC(=O)[C@@H]2CCCN2C1=O [[Ala7]GpTx-1(1-34)] (H-DCLGFMAKCIPDNDKCCRPNLVCSRTHKWCKYVF-NH2; disulfide 2-17, 9-23, 16-30) showed an IC50 (IonWorks Quattro, use-dependent block, hNav1.7) of 940 nM.
In the case of CC[C@H](C)[C@@H]1NC(=O)[C@@H]2CSSC[C@@H]3NC(=O)[C@H](C(C)C)NC(=O)[C@H](CC(C)C)NC(=O)[C@H](CC(N)=O)NC(=O)[C@@H]4CCCN4C(=O)[C@H](CCCNC(=N)N)NC(=O)[C@H](CSSC[C@H](NC(=O)[C@@H](N)CC(=O)O)C(=O)N[C@@H](CC(C)C)C(=O)NCC(=O)N[C@@H](Cc4ccccc4)C(=O)N[C@@H](CCSC)C(=O)N[C@@H](CCCNC(=N)N)C(=O)N[C@@H](CCC(=O)O)C(=O)N2)NC(=O)[C@H](CSSC[C@@H](C(=O)N[C@@H](CCCCN)C(=O)N[C@@H](Cc2ccc(O)cc2)C(=O)N[C@H](C(=O)N[C@@H](Cc2ccccc2)C(N)=O)C(C)C)NC(=O)[C@H](Cc2c[nH]c4ccccc24)NC(=O)[C@H](CCCCN)NC(=O)[C@H](Cc2c[nH]cn2)NC(=O)[C@H]([C@@H](C)O)NC(=O)[C@H](CCCNC(=N)N)NC(=O)[C@H](CO)NC3=O)NC(=O)[C@H](CCCCN)NC(=O)[C@H](CC(=O)O)NC(=O)[C@H](CC(N)=O)NC(=O)[C@H](CC(=O)O)NC(=O)[C@@H]2CCCN2C1=O [[Glu8]GpTx-1(1-34)] (H-DCLGFMRECIPDNDKCCRPNLVCSRTHKWCKYVF-NH2; disulfide 2-17, 9-23, 16-30), the IC50 is reported as 1700 nM.
CC[C@H](C)[C@@H]1NC(=O)[C@@H]2CSSC[C@@H]3NC(=O)[C@H](C(C)C)NC(=O)[C@H](CC(C)C)NC(=O)[C@H](CC(N)=O)NC(=O)[C@@H]4CCCN4C(=O)[C@H](CCCNC(=N)N)NC(=O)[C@H](CSSC[C@H](NC(=O)[C@@H](N)CC(=O)O)C(=O)N[C@@H](CC(C)C)C(=O)NCC(=O)N[C@@H](Cc4ccccc4)C(=O)N[C@@H](CCSC)C(=O)N[C@@H](CCCNC(=N)N)C(=O)N[C@@H](CCCCN)C(=O)N2)NC(=O)[C@H](CSSC[C@@H](C(=O)N[C@@H](CCCCN)C(=O)N[C@@H](Cc2ccc(O)cc2)C(=O)N[C@H](C(=O)N[C@@H](Cc2ccccc2)C(N)=O)C(C)C)NC(=O)[C@H](Cc2c[nH]c4ccccc24)NC(=O)[C@H](CCCCN)NC(=O)[C@H](Cc2c[nH]cn2)NC(=O)[C@H]([C@@H](C)O)NC(=O)[C@H](CCCNC(=N)N)NC(=O)[C@H](CO)NC3=O)NC(=O)[C@H](CCCCN)NC(=O)[C@H](CC(=O)O)NC(=O)[C@H](CC(N)=O)NC(=O)[C@H](C)NC(=O)[C@@H]2CCCN2C1=O [compound 4] (H-DCLGFMRKCIPANDKCCRPNLVCSRTHKWCKYVF-NH2; disulfide 2-17, 9-23, 16-30) gave an IC50 (IonWorks Quattro, Use) of 120 nM.
Work on CC[C@H](C)[C@@H]1NC(=O)[C@@H]2CSSC[C@@H]3NC(=O)[C@H](C(C)C)NC(=O)[C@H](CC(C)C)NC(=O)[C@H](C)NC(=O)[C@@H]4CCCN4C(=O)[C@H](CCCNC(=N)N)NC(=O)[C@H](CSSC[C@H](NC(=O)[C@@H](N)CC(=O)O)C(=O)N[C@@H](CC(C)C)C(=O)NCC(=O)N[C@@H](Cc4ccccc4)C(=O)N[C@@H](CCSC)C(=O)N[C@@H](CCCNC(=N)N)C(=O)N[C@@H](CCCCN)C(=O)N2)NC(=O)[C@H](CSSC[C@@H](C(=O)N[C@@H](CCCCN)C(=O)N[C@@H](Cc2ccc(O)cc2)C(=O)N[C@H](C(=O)N[C@@H](Cc2ccccc2)C(N)=O)C(C)C)NC(=O)[C@H](Cc2c[nH]c4ccccc24)NC(=O)[C@H](CCCCN)NC(=O)[C@H](Cc2c[nH]cn2)NC(=O)[C@H]([C@@H](C)O)NC(=O)[C@H](CCCNC(=N)N)NC(=O)[C@H](CO)NC3=O)NC(=O)[C@H](CCCCN)NC(=O)[C@H](CC(=O)O)NC(=O)[C@H](CC(N)=O)NC(=O)[C@H](CC(=O)O)NC(=O)[C@@H]2CCCN2C1=O [compound 7] (H-DCLGFMRKCIPDNDKCCRPALVCSRTHKWCKYVF-NH2; disulfide 2-17, 9-23, 16-30) yielded an IC50 of 690 nM.
For CC[C@H](C)[C@@H]1NC(=O)[C@@H]2CSSC[C@@H]3NC(=O)[C@H](C)NC(=O)[C@H](CC(C)C)NC(=O)[C@H](CC(N)=O)NC(=O)[C@@H]4CCCN4C(=O)[C@H](CCCNC(=N)N)NC(=O)[C@H](CSSC[C@H](NC(=O)[C@@H](N)CC(=O)O)C(=O)N[C@@H](CC(C)C)C(=O)NCC(=O)N[C@@H](Cc4ccccc4)C(=O)N[C@@H](CCSC)C(=O)N[C@@H](CCCNC(=N)N)C(=O)N[C@@H](CCCCN)C(=O)N2)NC(=O)[C@H](CSSC[C@@H](C(=O)N[C@@H](CCCCN)C(=O)N[C@@H](Cc2ccc(O)cc2)C(=O)N[C@H](C(=O)N[C@@H](Cc2ccccc2)C(N)=O)C(C)C)NC(=O)[C@H](Cc2c[nH]c4ccccc24)NC(=O)[C@H](CCCCN)NC(=O)[C@H](Cc2c[nH]cn2)NC(=O)[C@H]([C@@H](C)O)NC(=O)[C@H](CCCNC(=N)N)NC(=O)[C@H](CO)NC3=O)NC(=O)[C@H](CCCCN)NC(=O)[C@H](CC(=O)O)NC(=O)[C@H](CC(N)=O)NC(=O)[C@H](CC(=O)O)NC(=O)[C@@H]2CCCN2C1=O [compound 8] (H-DCLGFMRKCIPDNDKCCRPNLACSRTHKWCKYVF-NH2; disulfide 2-17, 9-23, 16-30), the IC50 (IonWorks Quattro, Use) was 380 nM.
In the case of CC[C@H](C)[C@@H]1NC(=O)[C@@H]2CSSC[C@@H]3NC(=O)[C@H](C(C)C)NC(=O)[C@H](CC(C)C)NC(=O)[C@H](CC(N)=O)NC(=O)[C@@H]4CCCN4C(=O)[C@H](CCCNC(=N)N)NC(=O)[C@H](CSSC[C@H](NC(=O)[C@@H](N)CC(=O)O)C(=O)N[C@@H](CC(C)C)C(=O)NCC(=O)N[C@@H](Cc4ccccc4)C(=O)N[C@@H](CCSC)C(=O)N[C@@H](CCCNC(=N)N)C(=O)N[C@@H](CCCCN)C(=O)N2)NC(=O)[C@H](CSSC[C@@H](C(=O)N[C@@H](CCCCN)C(=O)N[C@@H](C)C(=O)N[C@H](C(=O)N[C@@H](Cc2ccccc2)C(N)=O)C(C)C)NC(=O)[C@H](Cc2c[nH]c4ccccc24)NC(=O)[C@H](CCCCN)NC(=O)[C@H](Cc2c[nH]cn2)NC(=O)[C@H]([C@@H](C)O)NC(=O)[C@H](CCCNC(=N)N)NC(=O)[C@H](CO)NC3=O)NC(=O)[C@H](CCCCN)NC(=O)[C@H](CC(=O)O)NC(=O)[C@H](CC(N)=O)NC(=O)[C@H](CC(=O)O)NC(=O)[C@@H]2CCCN2C1=O [compound 14] (H-DCLGFMRKCIPDNDKCCRPNLVCSRTHKWCKAVF-NH2; disulfide 2-17, 9-23, 16-30), the IC50 is reported as 800 nM.
